Earlier results on one substance are cited in PMC9410468 (Marine Drugs, 2022).

In the series the test system is rats. To be noted: rat, in vivo; cited from earlier work. An excerpt: In the mammalian brain, the medial habenula (MHB) expresses high nAChR levels. Recently, α3-containing nAChRs present in the medial habenula have attracted substantial attention because of their potential role in influencing nicotine addiction. In addition, recent studies have shown that the gene polymorphism of the α3 and β4 subunits in vivo are related to nicotine addiction and drug abuse. The α3β4 nAChR subtype is mainly located in the MHB, […] (IPN), and fasciculus retroflexus (FR) of the rat brain. In addition, it is also expres ...

For AT-1001, the “effect on nicotine self-administration (in words)” value was “reduce nicotine self-administration in rats”.
